Tests used:
mTRPA1 = biological target: T1, mTRPA1 (Mus musculus, UniProt Q8BLA8); assay: Live cell labeling with Cy3-labeled oligos in cultured DRG neurons; type: binding; settings: 10 μM Cy3-labeled oligo, 15 min
T1 construct: endogenous in cells; host or cells: dissociated mouse DRG neurons in primary culture
Experimental: Live Cell Labeling and Immunocytochemistry in Mouse DRG Neurons. Disassociated DRG neurons were plated on Poly-D-Lysine coated coverslips and cultured in Neurobasal medium supplemented with B27 for 24 hr. Cells were incubated with 10 μM Cy3-labeled miR-711 or miR-711 (m6) in extracellular cell solution for 15 min at 37° C. with 5% CO2. Then the coverslips were washed and incubated with TRPA1 primary antibody (Alomone lab, rabbit, 1:100) at 4° C. for 1 hr. The cells on coverslips were incubated with secondary antibody conjugated to FITC (1:100; Jackson ImmunoResearch, West Grove, Pa.) and examined under a Leica SP5 inverted confocal microscope.

TRPV3 = biological target: T2, TRPV3 (Mus musculus, UniProt Q8K424); assay: Whole-cell patch clamp in CHO cells transfected with mouse Trpv3 cDNA; type: cell-based; settings: miR-711 10 μM; carvacrol 300 μM
T2 construct: expressed in transfected cells; host or cells: CHO cells (ATCC CRL-9096), plasmid pcDNA3.1-mTrpv3, a gift from Korea University
T2 sequence (Q8K424 1-791): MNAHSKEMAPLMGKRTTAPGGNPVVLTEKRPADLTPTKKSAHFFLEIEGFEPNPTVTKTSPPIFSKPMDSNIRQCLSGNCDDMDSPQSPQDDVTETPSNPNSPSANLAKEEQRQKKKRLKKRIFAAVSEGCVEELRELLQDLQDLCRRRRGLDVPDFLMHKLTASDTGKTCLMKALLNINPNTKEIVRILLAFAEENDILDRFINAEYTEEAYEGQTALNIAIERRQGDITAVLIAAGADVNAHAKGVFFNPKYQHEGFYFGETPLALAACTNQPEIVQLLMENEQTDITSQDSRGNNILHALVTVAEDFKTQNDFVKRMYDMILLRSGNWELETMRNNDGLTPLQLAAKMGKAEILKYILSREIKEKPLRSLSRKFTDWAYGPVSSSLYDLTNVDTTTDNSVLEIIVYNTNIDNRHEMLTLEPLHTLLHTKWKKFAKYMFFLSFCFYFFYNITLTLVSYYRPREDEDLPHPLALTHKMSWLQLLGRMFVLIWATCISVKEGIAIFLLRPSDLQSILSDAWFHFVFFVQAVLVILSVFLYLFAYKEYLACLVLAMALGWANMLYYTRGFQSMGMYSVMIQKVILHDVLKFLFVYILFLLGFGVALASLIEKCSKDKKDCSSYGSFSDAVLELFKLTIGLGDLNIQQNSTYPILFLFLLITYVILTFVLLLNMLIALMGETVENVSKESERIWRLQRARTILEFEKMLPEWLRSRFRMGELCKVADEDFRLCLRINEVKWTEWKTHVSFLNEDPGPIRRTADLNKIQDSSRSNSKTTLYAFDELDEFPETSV
Experimental: Constructs. The cDNAs of mouse pcDNA3.1-Trpa1, pcDNA3.1-Trpv1, pcDNA3.1-Trpv2, pcDNA3.1-Trpv3, and pcDNA3.1-Trpv4 were kindly provided Dr. Sun Work Hwang from Korea University. Mouse Trpa1 cDNA was subcloned into pCGN-HA backbone (Addgene) using In-Fusion HD Cloning Kit (Clontech Laboratories, CA). Q5 Site-Directed Mutagenesis Kit was used to generate mTrpa1 mutant (M1-M13) based on pCGN-mTrpa1.
Cell Culture and Transfection. CD4^+ Myla cell line was cultured in RPMI 1640 media (GIBCO), supplemented with 2 mM Glutamine (GIBCO), 100 U/mL IL-2 (Sigma), 100 U/mL IL-4 (Sigma), and 10% human AB serum (Sigma). HuT 102 cell line was cultured in RPMI 1640 supplemented with pyruvate, HEPES, and 10% (v/v) fetal bovine serum (HyClone). HEK293-hTRPA1 stable cell line was cultured in MEM (GIBCO) containing 2 mM Glutamine, 4 μg/mL Blasticidin, 10% FBS (v/v). B16 and CHO cells were cultured in high glucose (4.5 g/L) Dulbecco's Modified Eagle's Medium (GIBCO) containing 10% (v/v) fetal bovine serum (GIBCO). Culture media were supplemented with 50 units/mL of penicillin and 50 μg/mL streptomycin, and cultures were maintained with 5% CO2 in 37° C. incubator. Transfection (2 μg cDNA) was performed with Lipofectamine™ 2000 Reagent (Invitrogen) at 80% confluency and the transfected cells were cultured in the same media for 48 hr before electrophysiological and biochemical studies. […]

T1 sequence (Q8BLA8 whole entry): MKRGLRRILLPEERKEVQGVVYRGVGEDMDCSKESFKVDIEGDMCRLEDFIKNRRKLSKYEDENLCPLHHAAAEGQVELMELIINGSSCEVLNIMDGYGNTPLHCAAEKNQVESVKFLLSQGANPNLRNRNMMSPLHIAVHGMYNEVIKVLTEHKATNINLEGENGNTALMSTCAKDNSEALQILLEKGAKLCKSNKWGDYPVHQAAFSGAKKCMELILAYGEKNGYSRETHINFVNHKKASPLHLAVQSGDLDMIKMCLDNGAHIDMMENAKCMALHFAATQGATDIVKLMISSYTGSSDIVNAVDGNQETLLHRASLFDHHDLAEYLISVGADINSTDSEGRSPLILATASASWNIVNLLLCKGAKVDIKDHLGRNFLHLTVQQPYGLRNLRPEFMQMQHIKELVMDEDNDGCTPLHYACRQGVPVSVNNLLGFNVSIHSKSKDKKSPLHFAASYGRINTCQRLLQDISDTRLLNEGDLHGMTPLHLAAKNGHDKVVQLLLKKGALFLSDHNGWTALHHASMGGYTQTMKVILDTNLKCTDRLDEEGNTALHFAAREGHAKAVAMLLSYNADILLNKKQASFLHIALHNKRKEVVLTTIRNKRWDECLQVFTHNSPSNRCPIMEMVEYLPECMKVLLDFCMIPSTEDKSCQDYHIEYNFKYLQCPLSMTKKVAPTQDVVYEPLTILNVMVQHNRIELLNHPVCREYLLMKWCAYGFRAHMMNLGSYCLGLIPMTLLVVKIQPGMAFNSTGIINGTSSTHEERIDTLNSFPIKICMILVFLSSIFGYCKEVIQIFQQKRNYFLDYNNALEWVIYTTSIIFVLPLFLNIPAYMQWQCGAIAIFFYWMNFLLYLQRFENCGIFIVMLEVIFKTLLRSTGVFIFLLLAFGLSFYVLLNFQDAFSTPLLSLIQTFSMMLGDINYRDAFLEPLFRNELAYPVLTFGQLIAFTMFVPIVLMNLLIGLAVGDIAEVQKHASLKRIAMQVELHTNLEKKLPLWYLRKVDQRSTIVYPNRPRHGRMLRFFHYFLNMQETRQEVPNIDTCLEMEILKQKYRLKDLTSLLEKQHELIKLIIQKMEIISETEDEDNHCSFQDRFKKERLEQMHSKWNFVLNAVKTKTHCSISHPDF

## Cy3-labeled miR-711: mmu-miR-711-cy3: gggacccggggagagauguaag-cy3 (SEQ ID NO: 20) (GGGACCCGGGGAGAGAUGUAAG; Cy3 label at 3' end, RNA chemistry otherwise not given here, further chemistry not given here)
mTRPA1
  binding to TRPA1 on the cell surface of DRG neurons: binds to TRPA1 on the cell surface

## Cc1ccc(C(C)C)cc1O [carvacrol]
TRPV3
  inward currents: inward currents induced

Reference: patent US20210283163A1, “COMPOSITIONS AND METHODS FOR THE TREATMENT OF ACUTE AND CHRONIC PRURITIS” (Duke University, priority 2018, published 2021)
